≈ marks a conversion by molar mass, not a printed value.
Tests used:
Type in all cases: functional
[1] = system: Klebsiella pneumoniae; experiment: Antimicrobial activity against Klebsiella pneumoniae MTCC 3384 at 50 ug/ml after 24 hrs by agar disc diffusion method; details: MTCC 3384, 24 h, read-out: DIZ
[2] = system: Aspergillus flavus; experiment: Antimicrobial activity against Aspergillus flavus MTCC 873 at 100 ug/ml after 24 hrs by agar disc diffusion method; details: MTCC 873, 24 h, read-out: DIZ
[3] = Antioxidant activity assessed as reducing power of ferric ion at 50 ug/ml after 20 mins; set-up: scale not given: the % may be the effect or the level left
[4] = Antioxidant activity assessed as reducing power of ferric ion at 100 ug/ml after 20 mins; set-up: scale not given: the % may be the effect or the level left
[5] = Antioxidant activity against ferric chloride-induced lipid peroxidation using egg lecithin at 50 ug/ml after 1 hr
[6] = system: Aspergillus niger; experiment: Antimicrobial activity against Aspergillus niger MTCC 281 at 100 ug/ml after 24 hrs by agar disc diffusion method; details: MTCC 281, 24 h, read-out: DIZ
[7] = system: Staphylococcus aureus; experiment: Antimicrobial activity against Staphylococcus aureus MTCC 96 at 50 ug/ml after 24 hrs by agar disc diffusion method; details: MTCC 96, 24 h, read-out: DIZ
[8] = system: Aspergillus niger; experiment: Antimicrobial activity against Aspergillus niger MTCC 281
[9] = system: Escherichia coli; experiment: Antimicrobial activity against Escherichia coli MTCC 724
[10] = system: Aspergillus flavus; experiment: Antimicrobial activity against Aspergillus flavus MTCC 873
[11] = system: Aspergillus niger; experiment: Antimicrobial activity against Aspergillus niger MTCC 281 at 50 ug/ml after 24 hrs by agar disc diffusion method; details: MTCC 281, 24 h, read-out: DIZ
[12] = system: Staphylococcus aureus; experiment: Antimicrobial activity against Staphylococcus aureus MTCC 96 at 100 ug/ml after 24 hrs by agar disc diffusion method; details: MTCC 96, 24 h, read-out: DIZ
[13] = system: Staphylococcus aureus; experiment: Antimicrobial activity against Staphylococcus aureus MTCC 96
[14] = system: Shigella flexneri; experiment: Antimicrobial activity against Shigella flexneri MTCC 1457 at 50 ug/ml after 24 hrs by agar disc diffusion method; details: MTCC 1457, 24 h, read-out: DIZ
[15] = system: Aspergillus flavus; experiment: Antimicrobial activity against Aspergillus flavus MTCC 873 at 50 ug/ml after 24 hrs by agar disc diffusion method; details: MTCC 873, 24 h, read-out: DIZ
[16] = system: Escherichia coli; experiment: Antimicrobial activity against Escherichia coli MTCC 724 at 50 ug/ml after 24 hrs by agar disc diffusion method; details: MTCC 724, 24 h, read-out: DIZ
[17] = Antiinflammatory activity against heat-induced albumin denaturation at […] preincubated for 15 mins before heat induction by UV-vis spectrophotometer analysis
[18] = system: Shigella flexneri; experiment: Antimicrobial activity against Shigella flexneri MTCC 1457
[19] = system: Shigella flexneri; experiment: Antimicrobial activity against Shigella flexneri MTCC 1457 at 100 ug/ml after 24 hrs by agar disc diffusion method; details: MTCC 1457, 24 h, read-out: DIZ
[20] = system: Bacillus cereus; experiment: Antimicrobial activity against Bacillus cereus MTCC 8372
[21] = Antioxidant activity against ferric chloride-induced lipid peroxidation using egg lecithin at 10 ug/ml after 1 hr
[22] = system: Radical scavenging activity; experiment: Antioxidant activity assessed as DPPH free radical scavenging activity at 10 ug/ml after 20 mins
[23] = system: Escherichia coli; experiment: Antimicrobial activity against Escherichia coli MTCC 724 at 100 ug/ml after 24 hrs by agar disc diffusion method; details: MTCC 724, 24 h, read-out: DIZ
[24] = system: Bacillus cereus; experiment: Antimicrobial activity against Bacillus cereus MTCC 8372 at 50 ug/ml after 24 hrs by agar disc diffusion method; details: MTCC 8372, 24 h, read-out: DIZ
[25] = system: Radical scavenging activity; experiment: Antioxidant activity assessed as DPPH free radical scavenging activity at 50 ug/ml after 20 mins
[26] = system: Bacillus cereus; experiment: Antimicrobial activity against Bacillus cereus MTCC 8372 at 100 ug/ml after 24 hrs by agar disc diffusion method; details: MTCC 8372, 24 h, read-out: DIZ
[27] = system: Klebsiella pneumoniae; experiment: Antimicrobial activity against Klebsiella pneumoniae MTCC 3384 at 100 ug/ml after 24 hrs by agar disc diffusion method; details: MTCC 3384, 24 h, read-out: DIZ
[28] = Antioxidant activity assessed as reducing power of ferric ion at 10 ug/ml after 20 mins; set-up: scale not given: the % may be the effect or the level left
[29] = system: Radical scavenging activity; experiment: Antioxidant activity assessed as DPPH free radical scavenging activity at 100 ug/ml after 20 mins
[30] = Antioxidant activity against ferric chloride-induced lipid peroxidation using egg lecithin at 100 ug/ml after 1 hr
[31] = system: Klebsiella pneumoniae; experiment: Antimicrobial activity against Klebsiella pneumoniae MTCC 3384

Row | MIC [8] [µg/mL] | MIC [9] [µg/mL] | MIC [10] [µg/mL] | MIC [13] [µg/mL] | MIC [18] [µg/mL] | MIC [20] [µg/mL] | Compound | zone of inhibition at 50 µg/mL [1] [mm] | zone of inhibition at 100 µg/mL [2] [mm] | Activity [3] [%] | Activity [4] [%] | inhibition [5] [%] | zone of inhibition at 100 µg/mL [6] [mm] | zone of inhibition at 50 µg/mL [7] [mm] | zone of inhibition at 50 µg/mL [11] [mm] | zone of inhibition at 100 µg/mL [12] [mm] | zone of inhibition at 50 µg/mL [14] [mm] | zone of inhibition at 50 µg/mL [15] [mm] | zone of inhibition at 50 µg/mL [16] [mm] | inhibition [17] [%] | zone of inhibition at 100 µg/mL [19] [mm] | further results
1 | 20 (≈ 50.4 µM) | 35 (≈ 88.3 µM) | 15 (≈ 37.8 µM) | 55 (≈ 139 µM) | 50 (≈ 126 µM) | 55 (≈ 139 µM) | COc1ccccc1-c1nc(C2CC(c3ccccc3)=NN2c2ccccc2)no1 (centres undefined) | 3 | 12 | 22 | 54 | 31 | 14 | 2 | 8 | 6 | 3 | 10 | 4 | 23.9 | 8 | inhibition [21]: 11%; Activity [22]: 14%; zone of inhibition at 100 µg/mL [23]: 6 mm; zone of inhibition at 50 µg/mL [24]: 2 mm; Activity [25]: 34%; zone of inhibition at 100 µg/mL [26]: 8 mm; zone of inhibition at 100 µg/mL [27]: 6 mm; Activity [28]: 10%; Activity [29]: 44%; inhibition [30]: 60%; MIC [31]: 55 µg/mL (≈ 139 µM)
2 | 10 (≈ 24.9 µM) | 30 (≈ 74.8 µM) | 10 (≈ 24.9 µM) | 20 (≈ 49.9 µM) | 25 (≈ 62.4 µM) | 25 (≈ 62.4 µM) | Clc1ccc(-c2nc(C3CC(c4ccccc4)=NN3c3ccccc3)no2)cc1 (centres undefined) | 5 | 14 | 22 | 65 | 48 | 20 | 8 | 11 | 10 | 6 | 12 | 4 | 53.7 | 10 | inhibition [21]: 34%; Activity [22]: 23%; zone of inhibition at 100 µg/mL [23]: 18 mm; zone of inhibition at 50 µg/mL [24]: 6 mm; Activity [25]: 42%; zone of inhibition at 100 µg/mL [26]: 10 mm; zone of inhibition at 100 µg/mL [27]: 8 mm; Activity [28]: 12%; Activity [29]: 67%; inhibition [30]: 73%; MIC [31]: 30 µg/mL (≈ 74.8 µM)
3 | 10 (≈ 25.2 µM) | 25 (≈ 63.1 µM) | 25 (≈ 63.1 µM) | 55 (≈ 139 µM) | 25 (≈ 63.1 µM) | 45 (≈ 114 µM) | COc1ccc(C2=NN(c3ccccc3)C(c3noc(-c4ccccc4)n3)C2)cc1 (centres undefined) | 6 | 10 | 20 | 64 | 40 | 18 | 2 | 10 | 12 | 7 | 7 | 6 | 23.3 | 8 | inhibition [21]: 26%; Activity [22]: 19%; zone of inhibition at 100 µg/mL [23]: 8 mm; zone of inhibition at 50 µg/mL [24]: 3 mm; Activity [25]: 36%; zone of inhibition at 100 µg/mL [26]: 12 mm; zone of inhibition at 100 µg/mL [27]: 8 mm; Activity [28]: 11%; Activity [29]: 51%; inhibition [30]: 62%; MIC [31]: 25 µg/mL (≈ 63.1 µM)
4 | 20 (≈ 63.5 µM) | 40 (≈ 127 µM) | 25 (≈ 79.4 µM) | 40 (≈ 127 µM) | 20 (≈ 63.5 µM) | 30 (≈ 95.3 µM) | N/C(=N\O)C1CC(c2ccc(Cl)cc2)=NN1c1ccccc1 (centres undefined) | 8 | 10 | 28 | 68 | 12 | 8 | 3 | 8 | 5 | 8 | 6 | 3 | 59.1 | 12 | inhibition [21]: 18%; Activity [22]: 29%; zone of inhibition at 100 µg/mL [23]: 10 mm; zone of inhibition at 50 µg/mL [24]: 4 mm; Activity [25]: 39%; zone of inhibition at 100 µg/mL [26]: 8 mm; zone of inhibition at 100 µg/mL [27]: 10 mm; Activity [28]: 11%; Activity [29]: 69%; inhibition [30]: 14%; MIC [31]: 20 µg/mL (≈ 63.5 µM)

From ChEMBL document CHEMBL2406981, “Novel pyrazoline amidoxime and their 1,2,4-oxadiazole analogues: synthesis and pharmacological screening” (Bioorg Med Chem Lett, 2013)
